Laboratory results reported in patent US6667311B2, “Nitrogen substituted biaryl purine derivatives as potent antiproliferative agents” (Albany Molecular Research, Inc., priority 2001, dated 2003).

Legend:
Type in all cases: cell-based, human
CAKI-1 = experiment: NCI growth inhibition, CAKI-1; settings: CAKI-1 (Renal)
SN12C = experiment: NCI growth inhibition, SN12C; settings: SN12C (Renal)
NCI-H522 = experiment: NCI growth inhibition, NCI-H522; settings: NCI-H522 (Non-Small Cell Lung)
A549/ATCC = experiment: NCI growth inhibition, A549/ATCC; settings: A549/ATCC (Non-Small Cell Lung)
MDA-N = experiment: NCI growth inhibition, MDA-N; settings: MDA-N (Breast)
UO-31 = experiment: NCI growth inhibition, UO-31; settings: UO-31 (Renal)
M14 = experiment: NCI growth inhibition, M14; settings: M14 (Melanoma)
MDA-MB-231/ATCC = experiment: NCI growth inhibition, MDA-MB-231/ATCC; settings: MDA-MB-231/ATCC (Breast)
A498 = experiment: NCI growth inhibition, A498; settings: A498 (Renal)
LOX IMVI = experiment: NCI growth inhibition, LOX IMVI; settings: LOX IMVI (Melanoma)
OVCAR-8 = experiment: NCI growth inhibition, OVCAR-8; settings: OVCAR-8 (Ovarian)
SF-539 = experiment: NCI growth inhibition, SF-539; settings: SF-539 (CNS)
MOLT-4 = experiment: NCI growth inhibition, MOLT-4; settings: MOLT-4 (Leukemia)
SF-295 = experiment: NCI growth inhibition, SF-295; settings: SF-295 (CNS)
K-562 = experiment: NCI growth inhibition, K-562; settings: K-562 (Leukemia)
HCC-2998 = experiment: NCI growth inhibition, HCC-2998; settings: HCC-2998 (Colon)
NCI-H322M = experiment: NCI growth inhibition, NCI-H322M; settings: NCI-H322M (Non-Small Cell Lung)
COLO 205 = experiment: NCI growth inhibition, COLO 205; settings: COLO 205 (Colon)
HCT-116 = experiment: NCI growth inhibition, HCT-116; settings: HCT-116 (Colon)
KM12 = experiment: NCI growth inhibition, KM12; settings: KM12 (Colon)
EKVX = experiment: NCI growth inhibition, EKVX; settings: EKVX (Non-Small Cell Lung)
786-0 = experiment: NCI growth inhibition, 786-0; settings: 786-0 (Renal)
CCRF-CEM = experiment: NCI growth inhibition, CCRF-CEM; settings: CCRF-CEM (Leukemia)
OVCAR-3 = experiment: NCI growth inhibition, OVCAR-3; settings: OVCAR-3 (Ovarian)
OVCAR-4 = experiment: NCI growth inhibition, OVCAR-4; settings: OVCAR-4 (Ovarian)
MALME-3M = experiment: NCI growth inhibition, MALME-3M; settings: MALME-3M (Melanoma)
OVCAR-5 = experiment: NCI growth inhibition, OVCAR-5; settings: OVCAR-5 (Ovarian)
DU-145 = experiment: NCI growth inhibition, DU-145; settings: DU-145 (Prostate)
SK-MEL-2 = experiment: NCI growth inhibition, SK-MEL-2; settings: SK-MEL-2 (Melanoma)
MCF7 = experiment: NCI growth inhibition, MCF7; settings: MCF7 (Breast)
NCI-H23 = experiment: NCI growth inhibition, NCI-H23; settings: NCI-H23 (Non-Small Cell Lung)
PC-3 = experiment: NCI growth inhibition, PC-3; settings: PC-3 (Prostate)
NCI/ADR-RES = experiment: NCI growth inhibition, NCI/ADR-RES; settings: NCI/ADR-RES (Breast)
SK-OV-3 = experiment: NCI growth inhibition, SK-OV-3; settings: SK-OV-3 (Ovarian)
SR = experiment: NCI growth inhibition, SR; settings: SR (Leukemia)
SK-MEL-5 = experiment: NCI growth inhibition, SK-MEL-5; settings: SK-MEL-5 (Melanoma)
SF-268 = experiment: NCI growth inhibition, SF-268; settings: SF-268 (CNS)
T-47D = experiment: NCI growth inhibition, T-47D; settings: T-47D (Breast)
TK-10 = experiment: NCI growth inhibition, TK-10; settings: TK-10 (Renal)
RPMI-8226 = experiment: NCI growth inhibition, RPMI-8226; settings: RPMI-8226 (Leukemia)
SNB-75 = experiment: NCI growth inhibition, SNB-75; settings: SNB-75 (CNS)
HL-60 (TB) = experiment: NCI growth inhibition, HL-60 (TB); settings: HL-60(TB) (Leukemia)
RXF 393 = experiment: NCI growth inhibition, RXF 393; settings: RXF 393 (Renal)
SNB-19 = experiment: NCI growth inhibition, SNB-19; settings: SNB-19 (CNS)

## CC(=O)N[C@H]1CC[C@H](Nc2nc(NCc3ccc(-c4ccccc4)nc3)c3ncn(C(C)C)c3n2)CC1 [Compound 87]
CAKI-1
  GI50: 0.064 µM
SN12C
  GI50: < 0.01 µM
NCI-H522
  GI50: < 0.01 µM
A549/ATCC
  GI50: < 0.01 µM
MDA-N
  GI50: 0.014 µM
UO-31
  GI50: 0.016 µM
M14
  GI50: < 0.01 µM
MDA-MB-231/ATCC
  GI50: < 0.01 µM
A498
  GI50: 0.1 µM
LOX IMVI
  GI50: 0.027 µM
OVCAR-8
  GI50: 0.033 µM
SF-539
  GI50: 0.081 µM
MOLT-4
  GI50: 0.02 µM
SF-295
  GI50: 0.047 µM
K-562
  GI50: 0.024 µM
HCC-2998
  GI50: < 0.01 µM
NCI-H322M
  GI50: 0.021 µM
COLO 205
  GI50: < 0.01 µM
HCT-116
  GI50: 0.037 µM
KM12
  GI50: < 0.01 µM
EKVX
  GI50: 0.081 µM
786-0
  GI50: 0.047 µM
CCRF-CEM
  GI50: < 0.01 µM
OVCAR-3
  GI50: 0.05 µM
OVCAR-4
  GI50: 0.048 µM
MALME-3M
  GI50: 0.024 µM
OVCAR-5
  GI50: 0.051 µM
DU-145
  GI50: 0.22 µM
SK-MEL-2
  GI50: 0.056 µM
MCF7
  GI50: 0.04 µM
NCI-H23
  GI50: 0.022 µM
PC-3
  GI50: 0.018 µM
NCI/ADR-RES
  GI50: 0.28 µM
SK-OV-3
  GI50: 0.35 µM
SR
  GI50: 0.032 µM
SK-MEL-5
  GI50: 0.028 µM
SF-268
  GI50: < 0.01 µM
T-47D
  GI50: 0.048 µM
TK-10
  GI50: 0.029 µM
RPMI-8226
  GI50: < 0.01 µM
SNB-75
  GI50: 0.012 µM
HL-60 (TB)
  GI50: < 0.01 µM
RXF 393
  GI50: 0.011 µM
SNB-19
  GI50: 0.038 µM
